Columns and labels:
xanthine oxidase = xanthine oxidase (Homo sapiens (Human), UniProt P47989); assay: Assay control: xanthine oxidase (XO) replaces Nox2 as the source of ROS, LO12 luminescence; assay type: biochemical; details: Table 2, xanthine oxidase control
Procedure: Assay controls. To rule out interference with either Nox2 or Nox4 luminescence assays, two approaches are used. In one, xanthine oxidase replaces the Nox2 enzymatic system as the source of ROS in the Nox2/LO12 assay. Xanthine is added to initiate the reaction and LO12 luminescence is recorded. In the other, exogenous H2O2 is supplied in place of the Nox4 expressing H2O2-generating cells and luminescence is recorded.

Nox2 [1] = molecular target: T1, Nox2 (Homo sapiens (Human), UniProt P04839); assay: Nox2 activity assay for primary screening (cell free, human neutrophil plasma membranes, LO12 luminescence); assay type: biochemical
Procedure: Nox2 activity assay for primary screening: Plasma membranes were prepared from human neutrophils, which express large amounts of Nox2, stored at −80 C until use. See Curnutte et al., J. Biol. Chem. 1987, 262, 6450-6452, hereby incorporated by reference. Membranes are mixed with recombinant, purified cytosolic regulatory proteins (p67Np47N chimera, and a constitutively active mutant of Rac, Rac1(Q61)) and FAD, along with varying concentrations of compound, and LO12, which emits light when it reacts with ROS. The reaction is initiated by addition of NADPH and SDS (an artificial activator of Nox2).
Target sequence in this assay (P04839 2-570): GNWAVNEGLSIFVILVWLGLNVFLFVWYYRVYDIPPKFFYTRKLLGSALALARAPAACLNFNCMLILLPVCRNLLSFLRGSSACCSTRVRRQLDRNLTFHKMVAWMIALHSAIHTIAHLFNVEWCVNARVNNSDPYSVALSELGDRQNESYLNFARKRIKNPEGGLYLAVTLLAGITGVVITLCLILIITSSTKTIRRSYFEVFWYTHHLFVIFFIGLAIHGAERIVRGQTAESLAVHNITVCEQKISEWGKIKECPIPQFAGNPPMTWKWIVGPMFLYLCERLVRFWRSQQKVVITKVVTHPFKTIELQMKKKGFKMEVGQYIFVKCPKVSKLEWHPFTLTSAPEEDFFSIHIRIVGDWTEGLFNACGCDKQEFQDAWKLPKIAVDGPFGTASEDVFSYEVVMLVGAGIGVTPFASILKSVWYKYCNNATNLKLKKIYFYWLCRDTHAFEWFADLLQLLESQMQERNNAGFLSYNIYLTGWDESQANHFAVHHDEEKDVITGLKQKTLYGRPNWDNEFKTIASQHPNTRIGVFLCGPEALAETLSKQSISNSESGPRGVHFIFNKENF

[2] = Stability in liver S9-fractions, human; assay type: in vitro ADME; details: read-out: Stability in liver S9-fractions (t ½) Human (converted)
Solubility = assay type: physicochemical
Nox2 [3] = molecular target: T1, Nox2; assay: Nox2 assay in human neutrophils (PMN), LO12 luminescence; assay type: cell-based
Procedure: (§1) Nox2 assay in human neutrophils: Human neutrophils were obtained from healthy volunteers (REF). LO12 luminescence was quantified as above. Nox4 assay using stably transfected HEK cell: HEK cells stably transfected with human Nox4 were incubated with varying concentrations of compound along with LO12.
Target sequence in this assay (P04839 whole entry, looked up): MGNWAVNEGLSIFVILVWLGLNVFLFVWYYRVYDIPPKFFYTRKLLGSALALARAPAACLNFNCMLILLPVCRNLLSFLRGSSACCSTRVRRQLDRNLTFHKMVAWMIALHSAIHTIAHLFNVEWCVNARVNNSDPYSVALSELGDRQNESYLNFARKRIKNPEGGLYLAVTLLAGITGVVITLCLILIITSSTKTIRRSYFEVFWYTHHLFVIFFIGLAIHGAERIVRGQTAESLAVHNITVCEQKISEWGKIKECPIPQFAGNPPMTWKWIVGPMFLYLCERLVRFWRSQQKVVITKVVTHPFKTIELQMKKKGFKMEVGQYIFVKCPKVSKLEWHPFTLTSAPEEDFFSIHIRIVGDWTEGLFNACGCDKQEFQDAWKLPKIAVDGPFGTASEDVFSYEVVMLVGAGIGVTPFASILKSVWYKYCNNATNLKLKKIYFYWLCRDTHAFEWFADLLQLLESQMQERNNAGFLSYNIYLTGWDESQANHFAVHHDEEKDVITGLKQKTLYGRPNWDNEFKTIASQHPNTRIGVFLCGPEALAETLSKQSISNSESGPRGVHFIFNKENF
Target sequence in this assay (P13498 whole entry partner, looked up): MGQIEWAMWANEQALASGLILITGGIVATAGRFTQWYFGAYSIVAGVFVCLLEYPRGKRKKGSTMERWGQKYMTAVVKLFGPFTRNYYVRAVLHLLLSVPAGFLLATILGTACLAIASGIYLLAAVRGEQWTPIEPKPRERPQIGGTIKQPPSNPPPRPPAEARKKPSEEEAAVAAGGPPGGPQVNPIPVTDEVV

[4] = Stability in liver S9-fractions, mouse; assay type: in vitro ADME; details: read-out: Stability in liver S9-fractions (t ½) Mouse (converted)
Nox1 = Nox1 (Homo sapiens (Human), UniProt Q9Y5S8); assay: Nox1 inhibition; assay type: biochemical; details: Table 3
[5] = Stability in liver S9-fractions, dog; assay type: in vitro ADME; details: read-out: Stability in liver S9-fractions (t ½) Dog (converted)
human Nox4 = human Nox4 (Homo sapiens (Human), UniProt Q9NPH5); assay: Nox4 assay using stably transfected HEK cells; assay type: cell-based
Procedure: as §1
Nox4 produces hydrogen peroxide rather than superoxide; under these conditions LO12 luminesces only after the addition of horseradish peroxidase to initiate the reaction.

Nox5 = Nox5 (Homo sapiens (Human), UniProt Q96PH1); assay: Nox5 inhibition; assay type: biochemical; details: Table 3
[6] = Table 3, human neutrophils, read-out: Nox2 (PMN)
[7] = Table 3, read-out: Nox2 (Cell Free)

xanthine oxidase, sequence (P47989 whole entry, species assumed): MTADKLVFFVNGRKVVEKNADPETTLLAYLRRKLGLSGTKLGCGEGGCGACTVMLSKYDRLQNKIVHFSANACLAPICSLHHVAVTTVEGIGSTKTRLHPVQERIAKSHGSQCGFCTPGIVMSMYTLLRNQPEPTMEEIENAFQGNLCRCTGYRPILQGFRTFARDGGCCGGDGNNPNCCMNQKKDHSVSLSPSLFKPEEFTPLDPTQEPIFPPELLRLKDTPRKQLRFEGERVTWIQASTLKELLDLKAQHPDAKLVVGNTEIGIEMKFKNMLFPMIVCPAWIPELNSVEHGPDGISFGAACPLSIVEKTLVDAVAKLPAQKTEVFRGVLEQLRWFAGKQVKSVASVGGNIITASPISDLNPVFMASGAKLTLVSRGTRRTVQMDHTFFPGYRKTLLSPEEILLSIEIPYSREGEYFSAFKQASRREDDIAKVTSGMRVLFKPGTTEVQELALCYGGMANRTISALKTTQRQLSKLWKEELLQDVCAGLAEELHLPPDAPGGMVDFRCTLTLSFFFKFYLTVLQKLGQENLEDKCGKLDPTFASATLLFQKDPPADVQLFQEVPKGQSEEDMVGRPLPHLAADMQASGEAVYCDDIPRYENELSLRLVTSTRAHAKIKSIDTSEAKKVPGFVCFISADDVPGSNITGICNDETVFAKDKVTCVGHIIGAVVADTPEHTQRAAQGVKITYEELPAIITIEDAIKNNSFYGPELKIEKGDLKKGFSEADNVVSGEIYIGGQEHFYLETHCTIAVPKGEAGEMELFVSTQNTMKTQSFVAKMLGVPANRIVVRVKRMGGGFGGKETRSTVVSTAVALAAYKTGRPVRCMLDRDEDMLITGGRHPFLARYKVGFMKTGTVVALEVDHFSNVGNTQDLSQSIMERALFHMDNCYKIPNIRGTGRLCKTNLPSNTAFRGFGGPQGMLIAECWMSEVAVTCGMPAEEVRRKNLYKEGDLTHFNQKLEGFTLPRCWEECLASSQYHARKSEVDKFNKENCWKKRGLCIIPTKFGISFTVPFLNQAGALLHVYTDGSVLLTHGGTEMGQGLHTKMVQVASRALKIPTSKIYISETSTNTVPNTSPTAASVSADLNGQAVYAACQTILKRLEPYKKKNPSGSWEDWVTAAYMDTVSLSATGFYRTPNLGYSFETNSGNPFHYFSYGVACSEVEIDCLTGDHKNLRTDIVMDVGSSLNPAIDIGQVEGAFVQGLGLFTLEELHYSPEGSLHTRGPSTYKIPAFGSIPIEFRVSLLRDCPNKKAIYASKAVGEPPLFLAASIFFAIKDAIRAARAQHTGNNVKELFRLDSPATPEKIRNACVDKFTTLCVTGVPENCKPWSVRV
Nox1, sequence (Q9Y5S8 whole entry, species assumed): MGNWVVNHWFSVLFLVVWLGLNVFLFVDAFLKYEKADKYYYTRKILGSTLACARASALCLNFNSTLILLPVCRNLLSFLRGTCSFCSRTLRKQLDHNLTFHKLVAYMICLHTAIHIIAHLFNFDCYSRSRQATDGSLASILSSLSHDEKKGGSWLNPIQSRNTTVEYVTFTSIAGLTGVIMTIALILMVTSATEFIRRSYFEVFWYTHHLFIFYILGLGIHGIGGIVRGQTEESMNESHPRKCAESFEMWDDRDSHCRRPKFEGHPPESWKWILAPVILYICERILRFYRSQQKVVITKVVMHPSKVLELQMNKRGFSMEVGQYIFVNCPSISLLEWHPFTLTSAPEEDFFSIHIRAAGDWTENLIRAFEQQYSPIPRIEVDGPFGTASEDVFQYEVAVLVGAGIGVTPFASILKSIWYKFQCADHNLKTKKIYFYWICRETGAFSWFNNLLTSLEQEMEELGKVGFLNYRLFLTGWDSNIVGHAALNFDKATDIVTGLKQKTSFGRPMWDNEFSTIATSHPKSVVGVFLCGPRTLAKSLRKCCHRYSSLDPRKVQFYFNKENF
Nox1, sequence (P13498 2-195 partner, species assumed): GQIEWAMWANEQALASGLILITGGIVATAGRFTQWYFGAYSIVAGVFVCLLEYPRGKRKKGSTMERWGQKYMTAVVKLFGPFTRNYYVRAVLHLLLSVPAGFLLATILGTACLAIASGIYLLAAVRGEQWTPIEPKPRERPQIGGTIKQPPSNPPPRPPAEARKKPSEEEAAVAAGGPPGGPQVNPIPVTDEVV
human Nox4, sequence (Q9NPH5 whole entry): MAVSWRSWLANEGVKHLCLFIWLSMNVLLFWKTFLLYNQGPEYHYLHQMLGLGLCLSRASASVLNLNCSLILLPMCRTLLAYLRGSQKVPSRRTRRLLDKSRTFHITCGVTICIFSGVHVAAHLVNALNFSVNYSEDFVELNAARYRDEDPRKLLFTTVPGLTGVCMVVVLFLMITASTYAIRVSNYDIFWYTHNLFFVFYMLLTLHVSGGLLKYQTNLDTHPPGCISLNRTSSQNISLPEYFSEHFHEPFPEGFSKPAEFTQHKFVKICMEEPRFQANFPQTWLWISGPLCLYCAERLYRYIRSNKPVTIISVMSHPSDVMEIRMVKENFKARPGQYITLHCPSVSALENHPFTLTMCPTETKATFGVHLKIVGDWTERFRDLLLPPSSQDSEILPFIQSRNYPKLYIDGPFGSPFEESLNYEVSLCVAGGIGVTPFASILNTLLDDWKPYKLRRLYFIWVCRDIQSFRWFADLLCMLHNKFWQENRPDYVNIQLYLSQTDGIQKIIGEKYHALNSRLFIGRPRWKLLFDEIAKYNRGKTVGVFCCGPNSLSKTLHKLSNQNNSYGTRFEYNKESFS
human Nox4, sequence (P13498 2-195 partner): as the sequence (P13498 2-195 partner, species assumed) above
Nox5, sequence (Q96PH1 whole entry, species assumed): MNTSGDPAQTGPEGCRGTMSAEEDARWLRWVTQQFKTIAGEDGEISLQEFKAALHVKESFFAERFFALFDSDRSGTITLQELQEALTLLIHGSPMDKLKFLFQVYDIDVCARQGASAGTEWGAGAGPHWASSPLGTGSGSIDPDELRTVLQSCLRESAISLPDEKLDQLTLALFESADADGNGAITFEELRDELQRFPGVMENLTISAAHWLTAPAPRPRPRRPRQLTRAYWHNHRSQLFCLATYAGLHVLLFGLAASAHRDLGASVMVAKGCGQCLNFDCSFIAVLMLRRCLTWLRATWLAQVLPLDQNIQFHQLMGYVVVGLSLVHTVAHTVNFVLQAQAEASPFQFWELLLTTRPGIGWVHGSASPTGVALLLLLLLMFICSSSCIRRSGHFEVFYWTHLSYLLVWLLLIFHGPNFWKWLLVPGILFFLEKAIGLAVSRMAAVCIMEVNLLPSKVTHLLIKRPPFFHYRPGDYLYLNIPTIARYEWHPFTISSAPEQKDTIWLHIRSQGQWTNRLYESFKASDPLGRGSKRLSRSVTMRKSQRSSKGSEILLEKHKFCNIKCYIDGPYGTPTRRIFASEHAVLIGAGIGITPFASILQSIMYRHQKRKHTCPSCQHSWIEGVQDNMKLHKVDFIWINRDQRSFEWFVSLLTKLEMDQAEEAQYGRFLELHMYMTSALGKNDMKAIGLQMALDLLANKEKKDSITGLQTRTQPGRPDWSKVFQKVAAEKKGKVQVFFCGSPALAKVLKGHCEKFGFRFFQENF

COc1ccc(N2CCN(C(=O)c3cnc4cc(C(C)=O)ccc4c3O)CC2)cc1 [TG6-239]
IC50 (xanthine oxidase): ≥ 20000 nM
IC50 (Nox2 [1]; Table 2, read-out: IC50 Nox2): 1000 nM

COc1ccc(N2CCN(C(=O)c3cc4cc(F)ccc4[nH]3)CC2)cc1 [TG6-179-1]
IC50 (Nox2 [1]; Table 2, read-out: IC50 Nox2): 5000 nM

COc1ccc(N2CCN(C(=O)c3[nH]c4ccc(C(C)=O)cc4c3C)CC2)cc1 [TG6-190]
IC50 (Nox2 [1]; Table 2, read-out: IC50 Nox2): 1000 nM

COc1ccc(N2CCN(C(=O)c3cc4cc(C(C)=O)ccc4[nH]3)CC2)cc1 [TG6-161, 1-(2-(4-(4-methoxyphenyl)piperazine-1-carbonyl)-1H-indol-5-yl)ethanone]
half-life [2]: 0.75 h
solubility (Solubility): < 25 µM
IC50 (Nox2 [3]; [6]): 200 nM
IC50 (Nox2 [3]; read-out: IC50, ROS production in human neutrophils): 200 to 300 nM
half-life [4]: 3 h
IC50 (xanthine oxidase): > 20000 nM
IC50 (Nox2 [1]; Table 2, read-out: IC50 Nox2): 400 nM
IC50 (Nox2 [1]; [7]): 300 nM
IC50 (Nox2 [1]; read-out: IC50, Nox2 cell free system): 200 to 300 nM
IC50 (Nox1): 600 nM
half-life [5]: 2 h
selectivity for Nox2 compared with Nox4 (human Nox4): ≥ 100 fold
IC50 (human Nox4; using two different assays): 20000 to 30000 nM

COc1ccc(N2CCN(C(=O)c3cc4cc(C(N)=O)ccc4[nH]3)CC2)cc1F [TG6-254-1]
IC50 (Nox2 [1]; Table 2, read-out: IC50 Nox2): 2000 nM

CC(=O)c1ccc2[nH]c(C(=O)N3CCN(c4ccc(OC(C)C)cc4)CC3)cc2c1 [TG6-251-2]
IC50 (Nox2 [1]; Table 2, read-out: IC50 Nox2): 1000 nM

COc1ccc(N2CCN(C(=O)c3cc4cc(O)ccc4[nH]3)CC2)cc1 [TG6-199]
IC50 (xanthine oxidase): < 100 nM
IC50 (Nox2 [1]; Table 2, read-out: IC50 Nox2): 500 nM

CCc1ccc2[nH]c(C(=O)N3CCN(c4ccc(OC)cc4)CC3)cc2c1 [TG6-202]
IC50 (xanthine oxidase): > 20000 nM
IC50 Nox2 (Nox2 [1]; Table 2): Not active

O=C(c1cc2cc([N+](=O)[O-])ccc2[nH]1)N1CCN(c2ccc(OC(F)(F)F)cc2)CC1 [TG6-209]
inhibition at 2 µM (Nox2 [1]): 25%

CC(C)Oc1ccc(N2CCN(C(=O)c3nc4cc(C(N)=O)ccc4[nH]3)CC2)cc1 [TG6-251-1]
IC50 (xanthine oxidase): ≥ 20000 nM
IC50 (Nox2 [1]; Table 2, read-out: IC50 Nox2): 1000 nM

COc1ccc(N2CCN(C(=O)c3[nH]c4ccc(F)cc4c3CN3CCOCC3)CC2)cc1.Cl [TG7-31, (5-fluoro-3-(morpholinomethyl)-1H-indol-2-yl)(4-(4-methoxyphenyl)piperazin-1-yl)methanone]
IC50 (Nox5): 1500 nM
solubility (Solubility): 276 µM
IC50 (Nox2 [3]; [6]): 200 nM
IC50 (Nox2 [1]; [7]): 800 nM
IC50 (Nox1): 600 nM

COc1ccc(N2CCN(C(=O)c3nc4cc(F)ccc4[nH]3)CC2)cc1 [TG6-179-3, (5-fluoro-1H-benzo[d]imidazol-2-yl)(4-(4-methoxyphenyl)piperazin-1-yl)methanone]
half-life [2]: 1 h
solubility (Solubility): < 25 µM
IC50 (Nox2 [3]; [6]): 400 nM
half-life [4]: 5 h
IC50 (xanthine oxidase): > 20000 nM
IC50 (Nox2 [1]; Table 2, read-out: IC50 Nox2): 700 nM
IC50 (Nox2 [1]; [7]): 1000 nM
IC50 (Nox1): 600 nM
half-life [5]: 4 h

COc1ccc(N2CCN(C(=O)c3cnc4c(F)cccc4c3O)CC2)cc1 [TG6-192]
IC50 Nox2 (Nox2 [1]; Table 2): Not active

COc1ccc(N2CCN(C(=O)c3cc4ccccc4[nH]3)CC2)cc1 [TG6-225]
half-life [2]: 4.2 h
solubility (Solubility): < 25 µM
IC50 (Nox2 [3]; [6]): 200 nM
half-life [4]: 5 h
IC50 (xanthine oxidase): > 20000 nM
IC50 (Nox2 [1]; Table 2, read-out: IC50 Nox2): 500 nM
IC50 (Nox2 [1]; [7]): 400 nM
IC50 (Nox1): 500 nM
half-life [5]: 2.5 h

COc1ccc(N2CCN(C(=O)[C@H]3Cc4ccccc4N3)CC2)cc1 [TG6-214]
inhibition at 2.5 µM (Nox2 [1]): 40%

COc1ccc(N2CCN(C(=O)c3cc4cc(Br)ccc4[nH]3)CC2)cc1 [TG6-203]
inhibition at 0.3 µM (Nox2 [1]): 30%

COC(=O)C1CN(c2ccc(OC)cc2)CCN1C(=O)c1nc2cc(F)ccc2[nH]1 (stereo not shown) [TG6-235]
IC50 (xanthine oxidase): > 20000 nM
IC50 (Nox2 [1]; Table 2, read-out: IC50 Nox2): 1000 nM

COC(=O)c1ccc2[nH]c(C(=O)N3CCN(c4ccc(OC)cc4)CC3)cc2c1 [TG6-222]
IC50 (xanthine oxidase): > 20000 nM
IC50 (Nox2 [1]; Table 2, read-out: IC50 Nox2): 300 nM

COc1ccc(N2CCN(C(=O)c3cc4cc(OC)c(OC)cc4[nH]3)CC2)cc1 [TG6-181]
IC50 (xanthine oxidase): > 20000 nM
IC50 (Nox2 [1]; Table 2, read-out: IC50 Nox2): 800 nM

From patent US9428478B2, “Piperazine derivatives, compositions, and uses related thereto” (Emory University, priority 2011, dated 2016)
